Assay results reported in publication PMC11213934, “Allosteric modulators of M1 muscarinic receptors enhance acetylcholine efficacy and decrease locomotor activity and turning behaviors in zebrafish” (Scientific Reports, 2024).
“Also recorded” adds a separate entry of the source. Marks after values point to notes of the source that are not given here.

Tests used:
[1] = system: wild-type (AB) zebrafish (Danio rerio); assay: Maximum tolerated concentration (MTC) determination in larval zebrafish; assay type: in vivo; conditions: after 24 h exposure; 5 dpf larvae
Description: (§1) Larval zebrafish were produced in the University of Toledo zebrafish core facility and housed in an incubator maintained at 28 °C on a 14:10 h cycle. Fish were acclimated to the testing room conditions the evening prior to testing. All testing took place during the 14 h light cycle after the lights had been on for at least 2 h.
Determination of maximum tolerated concentration (adapted from Berghmans)[52] was completed by placing 5 days post fertilization (dpf) wild-type zebrafish larvae in a 24 well plate at 6 fish per well, and one compound concentration per well. […] Death was determined by the absence of heartbeat. Additional endpoints were used to assess toxicity at non-lethal concentrations such as startle capacity (poke stimulus), abnormalities in swimming behavior (loss of dorsoventral balance), and gross morphological deformities (bent body). […] The MTC determination was used to select three doses of each compound (low, medium, high dose) to be used in behavioral assays.

[2] = system: wild-type (AB) zebrafish (Danio rerio); assay: animal or person; assay type: in vivo; conditions: for Distance moved / Variance turn angle: compound at 10 µM relative to controls, mean ± s.e.m., N = 12; for MEC: locomotor behaviors
Description: as §1
The movement of larval zebrafish was monitored with the Noldus behavior recording system (Noldus Information Technology, Leesburg VA) and quantified using EthoVision® XT 15 software (Noldus Information Technology, Leesburg VA). Five-dpf zebrafish larvae were exposed to a range of nonlethal concentrations of compounds in a 24-well plate with appropriate controls. The plate was immediately placed in the incubator for a 30-min exposure period. After 30 min, the plate was transferred to the Noldus system and swimming behavior was recorded in 100% light for 30 min to measure spontaneous swimming behavior. The light was switched off for 10 min (dark period) and then switched on for 10 min (light period), which was then repeated for two additional cycles. In total, the larvae were exposed to three cycles of alternating 10 min dark and light periods (100% darkness-to-100% light). Each drug challenge was conducted on three separate plates with n = 6 larvae/dose/plate.
Absolute turn angle (TA) and angular velocity provided measures of the extent of turning behavior, while the intra-individual variance of turn angle quantified how consistently (low variance) or inconsistently (high variance) fish turned. A lowered intra-individual variance of turning reflected repeatedly performing the same turning behavior, a stereotypy.
All data for exposure and the behavioral end points were analyzed by one-way ANOVA (factor: drug concentration) followed by a Dunnett’s multiple comparisons test for post hoc significance between drug concentration and control group. Statistically significant differences are noted as follows; *p < 0.05; **p < 0.01; ***p < 0.001.

[3] = target: T1, human M1 muscarinic receptors (Homo sapiens, UniProt P11229); assay: [3H]-arachidonic acid release in CHO cells expressing M1 receptors, with and without ACh (single modulator concentration, four-parameter curves); assay type: cell-based; design: expressed in transfected cells; host or cells: CHO cells stably transfected with hM1, obtained from Mark Brann's laboratory (NIH); conditions: for 0.1 µM ACh: response with modulator present divided by response to ACh alone / 100 µM ACh: response with modulator present divided by response to ACh alone / No ACh: agonist effect of the allosteric ligand by itself, fraction of the maximal response that could be elicited by ACh: modulator 10 µM, CHO-hM1, mean ± s.e.m.; for No ACh: agonist effect of the allosteric ligand by itself, fraction of the maximal response that could be elicited by ACh: at least 4 determinations; for Effect on M1 receptor activity and ACh response, in words: modulators at 10 µM (amiodarone 30 µM)
T1 sequence (P11229 1-460): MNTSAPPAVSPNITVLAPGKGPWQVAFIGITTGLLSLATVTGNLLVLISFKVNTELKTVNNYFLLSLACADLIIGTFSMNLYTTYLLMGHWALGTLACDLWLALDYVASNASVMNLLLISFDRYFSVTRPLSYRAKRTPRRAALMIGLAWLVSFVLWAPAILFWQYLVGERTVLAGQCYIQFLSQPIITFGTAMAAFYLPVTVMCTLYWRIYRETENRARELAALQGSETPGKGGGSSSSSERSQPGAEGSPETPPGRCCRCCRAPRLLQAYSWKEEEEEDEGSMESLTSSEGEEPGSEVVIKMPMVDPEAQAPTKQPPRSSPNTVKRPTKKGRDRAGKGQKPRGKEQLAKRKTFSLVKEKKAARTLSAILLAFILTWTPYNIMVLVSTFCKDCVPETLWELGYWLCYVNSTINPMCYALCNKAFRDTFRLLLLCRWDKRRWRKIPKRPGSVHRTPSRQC
Description: CHO cells expressing human M1 muscarinic receptors were cultured at 37 °C in a 5% CO2 atmosphere in F12 medium supplemented with 5% fetal bovine serum, 100 units/ml penicillin, and 100 µg/ml streptomycin. These cells were obtained from Mark Brann’s laboratory when they were at NIH and have been in use by us and others for many years.
Measurement of [^3H]AA release was performed as described in Stahl and Ellis[24]. Stably transfected CHO-hM1 cells were seeded on 24-well plates (Greiner Bio-One GmbH, Frickenhausen, Germany) at a density of 5.0 × 10^4 cells/well in 0.5 ml of F-12 medium. Cells were incubated until they attached (approximately 3 h), followed by the addition of [^3H]AA to a final concentration of 0.05 μCi of [^3H]AA per well. The cells were then grown for 16 to 20 h before the assay was performed. [^3H]AA release was measured in Eagle’s basal medium with 20 mM HEPES and 2 mg/ml fatty acid-free bovine serum albumin (EM-BSA). Cells were rinsed twice with EM-BSA, followed by the addition of EM-BSA media containing experimental agents and incubated for 1 h at 37 °C. The assay was terminated by aspiration of the media, and the amount of [^3H]AA released was determined by liquid scintillation counting (Beckman-Coulter LS6500).
Where indicated (Fig. 2), cells were pretreated with POB to reduce the number of available receptors per cell. Stock POB was made up at 10 mM in ethanol and stored at −20C. Each well was pretreated with 0.5 ml of the appropriate concentration in PBS with 1 mM CaCl2 and 1 mM MgCl2 (PBS+ +) for 30 min at 37 °C, followed by 5 washes with PBS+ + . After pretreatment, the normal protocol follows as above.
Tabulated [^3H]AA release data are represented as a fraction of maximal release elicited by ACh or as the fraction of release elicited by the relevant concentration of ACh alone, as indicated. Dose-response curves were normalized to the maximal response of ACh without allosteric ligand. Where indicated, response curves were analyzed using the empirical four-parameter equation: Y=Top+Bottom-Top/1+X/C50^n where X is the concentration of the ligand used, Y is the amount of response, C50 is the concentration of the ligand that produces 50% of the maximal effect, Top and Bottom are the top and bottom plateaus of the curve, and n is related to the Hill slope for the curve. Where indicated, families of response curves were analyzed according to an allosteric operational model[50],[51]: Y=EM[τAA(KB+αβB)+τBBKA]/[τAA(KB+αβB)+τBBKA+AKB+KAKB+KAB+αAB] where EM is the maximal response; A is the concentration of ACh; B is the concentration of the allosteric ligand; τA and τB represent the operational efficacies of A and B, respectively; KA and KB are the equilibrium dissociation constants of A and B; and α and β represent the cooperativities between A and B in terms of binding and activation, respectively. Curve-fitting was carried out with GraphPad Prism, version 5.0 or 6.0 (San Diego CA).

[4] = system: wild-type (AB) zebrafish (Danio rerio); assay type: in vivo; conditions: compound at 10 µM relative to controls; mean ± s.e.m., N = 12

Row | Compound | MTC (maximum tolerated concentration) [1] | Distance moved [2] | Variance turn angle [2] | MEC [2] | 0.1 µM ACh: response with modulator present divided by response to ACh alone [3] | 100 µM ACh: response with modulator present divided by response to ACh alone [3] | No ACh: agonist effect of the allosteric ligand by itself, fraction of the maximal response that could be elicited by ACh [3] | Effect on M1 receptor activity and ACh response, in words [3] | Angular velocity [4] | Therap. index [2]
1 | CCCCc1oc2ccccc2c1C(=O)c1cc(I)c(OCCN(CC)C(C)=O)c(I)c1 [Compound 5, N-(2-(4-(2-butylbenzofuran-3-carbonyl)-2,6-diiodophenoxy)ethyl)-N-ethylacetamide] | 10 µM | 108.0 ± 12.9% | 102.5 ± 8.1% | > 10 µM | 1.86 ± 0.42 | 1.47 ± 0.09 | 0.22 ± 0.03 | significant intrinsic agonist activity | 104.0 ± 10.7% | –
2 | CCCCc1oc2ccccc2c1C(=O)c1ccc(OCCN(CC)CC)cc1 [Compound 6c, (2-butylbenzofuran-3-yl)(4-(2-(diethylamino)ethoxy)phenyl)methanone] | 3 µM | 59.8 ± 8.8% | 136.4 ± 11.8% | 0.1 µM | 0.40 ± 0.11 | 1.04 ± 0.05 | 0.04 ± 0.01 | decreased ACh activity | 129.9 ± 20.1% | 30
3 | COc1c(Cl)cc(CN2C(=O)C(=O)c3ccccc32)cc1Cl [Compound 8e, 1-(3,5-dichloro-4-methoxybenzyl)indoline-2,3-dione] | 100 µM | 29.1 ± 5.3*** % | 158.8 ± 14.3*** % | 1 µM | 2.29 ± 0.14 | 1.21 ± 0.07 | 0.13 ± 0.04 | – | 222.1 ± 25.0 % | 100
4 | CCCCc1oc2ccccc2c1C(=O)c1ccc(OC)cc1 [Compound 6a, (2-butylbenzofuran-3-yl)(4-methoxyphenyl)methanone] | 3 µM | 115.4 ± 11.7% | 115.8 ± 13.0% | > 3 µM | 1.37 ± 0.07 | 1.06 ± 0.04 | 0.05 ± 0.01 | inactive | 95.9 ± 13.3% | –
5 | CCN(CC)CCOc1c(Br)cc(CN2C(=O)C(=O)c3ccccc32)cc1Br.Cl [Compound 8l, 1-(3,5-dibromo-4-(2-(diethylamino)ethoxy)benzyl)indoline-2,3-dione hydrochloride] | 10 µM | 33.5 ± 4.4** % | 166.1 ± 12.5*** % | 10 µM | 0.10 ± 0.07 | 0.86 ± 0.04 | 0.05 ± 0.01 | only decreased ACh activity; also recorded: decreased ACh potency with little impact on ACh efficacy | 184.7 ± 17.0 % | 1
6 | COc1ccc(CN2C(=O)C(=O)c3ccccc32)cc1Br [Compound 8d, 1-(3-bromo-4-methoxybenzyl)indoline-2,3-dione] | 100 µM | 38.4 ± 4.5*** % | 170.2 ± 15.1*** % | 1 µM | 1.57 ± 0.06 | 0.90 ± 0.03 | 0.04 ± 0.01 | – | 201.4 ± 27.5 % | 100
7 | COc1ccc(CN2C(=O)C(=O)c3ccccc32)cc1I [Compound 8b, 1-(3-iodo-4-methoxybenzyl)indoline-2,3-dione] | 10 µM | 52.7 ± 6.6*** % | 143.0 ± 13.5** % | 1 µM | 2.13 ± 0.08 | 1.24 ± 0.01 | 0.08 ± 0.01 | – | 175.3 ± 19.0 % | 10
